Reference: US20090082388A1 (ACADIA PHARMACEUTICALS INC., priority 2007, published 2009)

Key:
[1] = tested on: 31 of the 36 human monoaminergic receptors; assay: Functional activity at human monoaminergic receptors; details: 5-HT1A, 1B, 1D, 1E, 1F, 2B, 3, 4, 6A, 7A; adrenergic α1A, α1B, α1D, α2A, α2B, β2; dopamine D1-D4; histamine H1-H3
[2] = molecular target: dopamine receptors including the D2 and D4 receptors; assay: Affinity to dopamine receptors; type: binding
[3] = tested on: mice with a deletion of the M1 muscarinic receptor (M1KO) or wild-type (WT) controls; assay: Hyperactivity study with M1 knock-out mice; type: in vivo
Procedure: A linear regression analysis was then conducted to determine the theoretical dose that would produce a 50% reduction of activity (ED50) and 95% confidence interval. Mice had no prior exposure to the chambers and each dose combination was tested in separate groups of mice.

[4] = Half-life upon oral administration to humans; details: human, in vivo
[5] = tested on: mice receiving ICV infusion of amyloid β protein fragment (25-35) or saline (sham); assay: Amphetamine-induced hyperactivity study with amyloid β protein; type: in vivo; details: pimavanserin 0.3 mg/kg, amphetamine 3 mg/kg, FIG. 8
Procedure: This study was conducted in acrylic chambers (42 cm×42 cm×30 cm) equipped with 16 infrared photobeams along each horizontal axis (front-to-back and side-to-side, from Accuscan Instruments, Inc. (Columbus, Ohio)). Subjects were mice receiving ICV infusion of amyloid β protein fragment (25-35) or ICV infusion of saline (sham) for 7-10 days.
An amphetamine-induced hyperactivity study was conducted on the subjects. Subjects were injected with amphetamine (3 mg/kg) or vehicle 15 minutes prior to entering motor activity chambers. Activity was measured as a total distance traveled (DT) in centimeters (cm) and was determined in 20 minute increments across a 60 minute session.
Activity was measured as a total distance traveled (DT) in centimeters (cm) and was determined in 20 minute increments across a 60 minute session.

[6] = Clearance from in vitro human microsomes; type: in vitro ADME; details: read-out: clearance rate from in vitro human microsomes
[7] = tested on: amphetamine-induced hyperactivity in mice; assay: Amphetamine-induced hyperactivity with tacrine or xanomeline; type: in vivo; details: amphetamine 3 mg/kg, pimavanserin 0.03 mg/kg where combined
Procedure: This study was conducted in acrylic chambers (42 cm×42 cm×30 cm) equipped with 16 infrared photobeams along each horizontal axis (front-to-back and side-to-side, from Accuscan Instruments, Inc., Columbus, Ohio). […] Vehicle or a drug (either tacrine or xanomeline) was injected 30 minutes prior to entering activity chambers. Amphetamine (3 mg/kg) was injected into mice 15 minutes prior to entering motor activity chambers. Mice had no prior exposure to the chambers and each dose combination was tested in separate groups of mice.
Activity was measured as total distance traveled (DT) in centimeters and was determined across a 15 minute session. Dose response curves were constructed for the drug in the presence of either vehicle or a fixed dose of pimavanserin. In order to generate dose-response curves, raw DT data were converted to percent inhibition, % MPI=((DT drug or drug combination−DT amphetamine control)/(DT vehicle control−DT amphetamine control))*100. A linear regression analysis was then conducted to determine the theoretical dose that would produce a 50% reduction of activity (ED50) and 95% confidence interval.

[8] = cited from earlier work
C57 BK/6 mice = details: test phase, FIGS. 5 and 6
Procedure: Subjects were male, C57 BK/6 mice purchased from Harlan Laboratories, weighing 15-20 g upon arrival. Animals were housed 8 per cage with food and water available ad libitum. Animals were housed on a 12 hr light cycle (lights on 6 am) for 4-7 days prior to behavioral testing.
Novel object recognition (NOR) was conducted in a novel environment consisting of a white plastic tub measuring 45.7×33.7×19 cm. Prior to each trial the bottom of the tub was covered with a piece of plastic lined bench top paper. There were two sets of identical objects chosen so that when given an opportunity to explore, mice would evenly divide exploration time between the objects. “A” objects were yellow, ceramic, 12-sided ramekins measuring 4 cm high×7 cm diameter. “B” objects were 8×8×4 cm stainless steel, 4-sided ramekins.
At the beginning of each test day, animals were placed in groups of 6 into clean cages. […]
During the sample phase, two identical objects (“A” or “B”, objects described above) were placed into the NOR chamber. […] The time spent exploring at each position was recorded. Directly sniffing or touching the object was recorded as exploration. […]
The test phase was conducted one to two hours after the sample phase. […] The test sessions were recorded on video and scored by an observer blind to each subject's treatment condition. Any time spent directly sniffing or touching an object was counted as exploration. […]

Q: For CC(C)COc1ccc(CNC(=O)N(Cc2ccc(F)cc2)C2CCN(C)CC2)cc1 [Pimavanserin, N-(1-methylpiperidin-4-yl)-N-(4-fluorophenylmethyl)-N′-(4-(2-methylpropyloxy)phenylmethyl)carbamide], which “functional activity (pEC50 or pKi)” value [1] is on record?
A: The value was under 6.

Q: What about the “pKi to dopamine receptors including D2 and D4” value [2] of the same compound?
A: Its value is under 6.

Q: And the “amphetamine-induced activity, M1KO subjects” value ([3]; M1KO mice, amphetamine 3 mg/kg ip, FIG. 9)?
A: Its value is “reversed the augmented amphetamine response”.

Q: And the “amphetamine-induced activity, WT subjects” value ([3]; WT mice, amphetamine 3 mg/kg ip, FIG. 9)?
A: Its value is “did not alter amphetamine-induced activity”.

Q: And the “percent inhibition of amphetamine-induced hyperactivity” value ([3]; as a function of pimavanserin dosage, FIG. 10)?
A: The value was “increased the inhibition of amphetamine-induced hyperactivity”.

Q: And the “locomotor activity, pimavanserin alone” value ([3]; no amphetamine, compared with vehicle controls, pimavanserin 0.03 or 0.3 mg/kg, FIG. 9)?
A: The value was “no significant effect on locomotor activity”.

Q: What about the half-life [4] of the same compound?
A: The half-life was about 55 h.

Q: And the “distance traveled following amphetamine, amyloid β mice” value ([5]; amyloid β mice)?
A: The value was “reversed the augmented locomotor response to amphetamine”.

Q: And the “distance traveled following amphetamine, control mice” value ([5]; sham (control) mice)?
A: The value was “did not reduce the hyperactivity induced by amphetamine”.

Q: And the microsomal CLint [6]?
A: The microsomal CLint was under 10 µL/min/mg.

Q: For Nc1c2c(nc3ccccc13)CCCC2 [tacrine], which total distance traveled ([7]; 15 minute session, FIGS. 1 and 3) is on record?
A: Its total distance traveled is “total distance traveled decreased”.

Q: What about the “percent inhibition of amphetamine-induced hyperactivity” value ([7]; FIGS. 2 and 4) of the same compound?
A: The value was “greater inhibition of amphetamine-induced hyperactivity”.

Q: What about the “patients with elevated liver transaminases” value [8] of the same compound?
A: The value was “about 30%”.

Q: What about the “percent of time spent exploring a novel object” value (C57 BK/6 mice) of the same compound?
A: Its value is “also increased”.
